Assay results taken from article PMC8617031, “Development of a BCL-xL and BCL-2 dual degrader with improved anti-leukemic activity,” (Nature Communications, 2021).
Several values for one entry are separate records, joined by “and”; a condition that tells them apart may be missing. Equal values may be shown once. Read-outs that look alike come from different tables or passages of the source.

Legend:
Assay type in all cases: cell-based, human
[1] = tested on: BCL-xL/PROTAC/VCB ternary complex (HiBit-BCL-xL, HaloTag-VHL); assay: NanoBRET intracellular ternary complex formation in 293T cells, BCL-xL; settings: for NanoBRET signal (610/450 ratio, background-subtracted), Ave, Bcl-xl: Ave of Read1 and Read2, per replicate well; for NanoBRET signal (610/450 ratio, background-subtracted), Read1, Bcl-xl / NanoBRET signal (610/450 ratio, background-subtracted), Read2, Bcl-xl: individual replicate wells
Text: (§1) Plasmids HaloTag-VHL (Cat. No. CS1679C155) and CMV HiBit (Cat. No. CS1956B03) were purchased from Promega. HiBit-BCL-xL and HiBit-BCL-2 were constructed previously. The two mutants (HiBit-BCL-xL-K157-only and HiBit-BCL-xL-K-ko) were constructed through Gibson assembly method. The primer pair (5′-[…]-3′ and 5′-[…]c[…]-3′) and the template Flag-BCL-xL-K157-only or Flag-BCL-xL-K-ko (pDL2129)[2] were used to clone the BCL-xL-K157-only-containing and BCL-xL-K-ko-containing fragments, respectively. The primer pair (5′-[…]g[…]-3′ and 5′-[…]-3′) and pBit3.1-N (Cat. No. N2361, Promega) were used to clone the vector-containing fragment. The PCR fragments were assembled using NEBuilder® HiFi DNA Assembly Master Mix (Cat. No. E2621, NEB, Ipswich, MA, USA). DNA sequences in all these plasmids were authenticated by automatic sequencing. […] After 24 h, 2 × 10^4 transfected cells were seeded into white 96-well tissue culture plates in Gibco™ Opti-MEM™ I Reduced Serum Medium, No Phenol Red (Cat. No. 11-058-021, Fisher) containing 4% FBS with or without HaloTag NanoBRET 618 Ligand (Cat. No. PRN1662, Promega) and incubated overnight at 37 °C, 5% CO2. The following day, serial diluted compounds were added into the medium and plates were incubated at 37 °C, 5% CO2, for 6 h. After treatment, NanoBRET Nano-Glo Substrate (cat. no. N1662, Promega) was added into the medium, and the contents were mixed by shaking the plate for 30 s before measuring donor and acceptor signals on Biotek plate reader. Dual-filtered luminescence was collected with a 450/50 nm bandpass filter (donor, NanoBiT-BCL-XL protein or NanoBiT-BCL-2 protein) and a 610-nm longpass filter (acceptor, HaloTag NanoBRET ligand) using an integration time of 0.5 s. mBRET ratios were calculated following the NanoBRET™ Nano-Glo® Detection System (Cat. No. N1662, Promega).

[2] = tested on: BCL-2/PROTAC/VCB ternary complex (HiBit-BCL-2, HaloTag-VHL); assay: NanoBRET intracellular ternary complex formation in 293T cells, BCL-2; settings: for NanoBRET signal (610/450 ratio, background-subtracted), Ave, Bcl-2: Ave of Read1 and Read2, per replicate well; for NanoBRET signal (610/450 ratio, background-subtracted), Read1, Bcl-2 / NanoBRET signal (610/450 ratio, background-subtracted), Read2, Bcl-2: individual replicate wells
Text: as §1

Kasumi-1 cells = assay: Viability (MTS) of Kasumi-1 AML cells; settings: for IC50: Homo sapiens, Kasumi 1, 72 h

For `Cc1ncsc1-c1ccc(C(C)NC(=O)C2CC(O)CN2C(=O)C(NC(=O)CCCCCCCCCC(=O)N2CCN(CC3(C)CCC(c4ccc(Cl)cc4)=C(CN4CCN(c5ccc(C(=O)NS(=O)(=O)c6ccc(NC(CCN7CCOCC7)CSc7ccccc7)c(S(=O)(=O)C(F)(F)F)c6)cc5)CC4)C3)CC2)C(C)(C)C)cc1` (mixture of isomers) [319-C11], the “NanoBRET signal (610/450 ratio, background-subtracted), Ave, Bcl-xl” value ([1]; 0.333 uM) was 5.756 and 6.621 and 6.037, the “NanoBRET signal (610/450 ratio, background-subtracted), Read1, Bcl-xl” value ([1]; 0.333 uM) was 6.07 and 6.538 and 6.1116 and the “NanoBRET signal (610/450 ratio, background-subtracted), Read2, Bcl-xl” value ([1]; 0.333 uM) was 5.442 and 6.704 and 5.963. The “NanoBRET signal (610/450 ratio, background-subtracted), Ave, Bcl-xl” value ([1]; 1 uM) was 5.696 and 5.538 and 6.106, the “NanoBRET signal (610/450 ratio, background-subtracted), Read1, Bcl-xl” value ([1]; 1 uM) was 5.861 and 5.46 and 6.469 and the “NanoBRET signal (610/450 ratio, background-subtracted), Read2, Bcl-xl” value ([1]; 1 uM) was 5.532 and 5.616 and 5.743. For the same molecule, the “NanoBRET signal (610/450 ratio, background-subtracted), Ave, Bcl-xl” value ([1]; 3 uM) was 5.386 and 5.324 and 6.583, the “NanoBRET signal (610/450 ratio, background-subtracted), Read1, Bcl-xl” value ([1]; 3 uM) was 5.512 and 5.444 and 6.844 and the “NanoBRET signal (610/450 ratio, background-subtracted), Read2, Bcl-xl” value ([1]; 3 uM) was 5.259 and 5.204 and 6.3216. For the same molecule, the “NanoBRET signal (610/450 ratio, background-subtracted), Ave, Bcl-2” value ([2]; 0.333 uM) was 4.383 and 4.153 and 4.737, the “NanoBRET signal (610/450 ratio, background-subtracted), Read1, Bcl-2” value ([2]; 0.333 uM) was 4.892 and 4.708 and 4.979 and the “NanoBRET signal (610/450 ratio, background-subtracted), Read2, Bcl-2” value ([2]; 0.333 uM) was 3.874 and 3.599 and 4.495. For the same molecule, the “NanoBRET signal (610/450 ratio, background-subtracted), Ave, Bcl-2” value ([2]; 1 uM) was 4.831 and 5.865 and 5.494, the “NanoBRET signal (610/450 ratio, background-subtracted), Read1, Bcl-2” value ([2]; 1 uM) was 4.901 and 5.9757 and 5.389 and the “NanoBRET signal (610/450 ratio, background-subtracted), Read2, Bcl-2” value ([2]; 1 uM) was 4.762 and 5.754 and 5.599. The “NanoBRET signal (610/450 ratio, background-subtracted), Ave, Bcl-2” value ([2]; 3 uM) was 4.755 and 5.241 and 5.369, the “NanoBRET signal (610/450 ratio, background-subtracted), Read1, Bcl-2” value ([2]; 3 uM) was 5 and 5.455 and 5.5909 and the “NanoBRET signal (610/450 ratio, background-subtracted), Read2, Bcl-2” value ([2]; 3 uM) was 4.5106 and 5.027 and 5.1462.
With `CC1(C)CCC(CN2CCN(c3ccc(C(=O)NS(=O)(=O)c4ccc(NCC5CCOCC5)c([N+](=O)[O-])c4)c(Oc4cnc5[nH]ccc5c4)c3)CC2)=C(c2ccc(Cl)cc2)C1` [ABT199, venetoclax] the “Luminescence (raw plate reading)” value (Kasumi-1 cells; 3.90625 nM (plate column 2), Fig. 7a) was 505600 and 468580 and 525678 and 543318, the “Luminescence (raw plate reading)” value (Kasumi-1 cells; 7.8125 nM (plate column 3), Fig. 7a) was 504424 and 455660 and 487360 and 542979 and the “Luminescence (raw plate reading)” value (Kasumi-1 cells; 15.625 nM (plate column 4), Fig. 7a) was 489014 and 455068 and 501527 and 480804. For the same molecule, the “Luminescence (raw plate reading)” value (Kasumi-1 cells; 31.25 nM (plate column 5), Fig. 7a) was 466073 and 441818 and 471956 and 491899, the “Luminescence (raw plate reading)” value (Kasumi-1 cells; 62.5 nM (plate column 6), Fig. 7a) was 440585 and 409812 and 377802 and 367500 and the “Luminescence (raw plate reading)” value (Kasumi-1 cells; 125 nM (plate column 7), Fig. 7a) was 397154 and 357971 and 355935 and 386744. The “Luminescence (raw plate reading)” value (Kasumi-1 cells; 250 nM (plate column 8), Fig. 7a) was 359551 and 316363 and 300748 and 321366, the “Luminescence (raw plate reading)” value (Kasumi-1 cells; 500 nM (plate column 9), Fig. 7a) was 315682 and 289875 and 281016 and 292587 and the “Luminescence (raw plate reading)” value (Kasumi-1 cells; 1000 nM (plate column 10), Fig. 7a) was 293868 and 256148 and 279970 and 273769. The “Luminescence (raw plate reading)” value (Kasumi-1 cells; 2000 nM = 2U (plate column 11), Fig. 7a) was 258049 and 207791 and 210071 and 198590, the “Luminescence (raw plate reading)” value (Kasumi-1 cells; 4000 nM = 4U (plate column 12), Fig. 7a) was 180705 and 155931 and 141587 and 133830 and the “Luminescence normalised to mean of the 0 concentration wells (= 100), viability” value (from here on “Luminescence normalised to mean”) (Kasumi-1 cells; 3.90625 (nM), Fig. 7a) was 73.8707 and 68.4619 and 76.8042 and 79.3815. The “Luminescence normalised to mean” value (Kasumi-1 cells; 7.8125 (nM), Fig. 7a) was 73.6989 and 66.5743 and 71.2058 and 79.332, the “Luminescence normalised to mean” value (Kasumi-1 cells; 15.625 (nM), Fig. 7a) was 71.4474 and 66.4878 and 73.2757 and 70.2479 and the “Luminescence normalised to mean” value (Kasumi-1 cells; 31.25 (nM), Fig. 7a) was 68.0956 and 64.5519 and 68.9552 and 71.869. The “Luminescence normalised to mean” value (Kasumi-1 cells; 62.5 (nM), Fig. 7a) was 64.3717 and 59.8756 and 55.1988 and 53.6936, the “Luminescence normalised to mean” value (Kasumi-1 cells; 125 (nM), Fig. 7a) was 58.0262 and 52.3014 and 52.0039 and 56.5053 and the “Luminescence normalised to mean” value (Kasumi-1 cells; 250 (nM), Fig. 7a) was 52.5322 and 46.2223 and 43.9408 and 46.9532. The “Luminescence normalised to mean” value (Kasumi-1 cells; 500 (nM), Fig. 7a) was 46.1228 and 42.3522 and 41.0579 and 42.7485, the “Luminescence normalised to mean” value (Kasumi-1 cells; 1000 (nM), Fig. 7a) was 42.9356 and 37.4245 and 40.905 and 39.9991 and the “Luminescence normalised to mean” value (Kasumi-1 cells; 2000 (nM, 2U), Fig. 7a) was 37.7023 and 30.3593 and 30.6924 and 29.015. The “Luminescence normalised to mean” value (Kasumi-1 cells; 4000 (nM, 4U), Fig. 7a) was 26.4019 and 22.7823 and 20.6866 and 19.5532, the IC50 (Kasumi-1 cells; Fig. 7a, read-out: IC50, viability of Kasumi-1 AML cells) was 867 nM and the IC50 (Kasumi-1 cells; Fig. 7c, read-out: IC50, viability of Kasumi-1 cells) was 1130 nM.
